The source of these data is patent publication US20230391868A1, “COMPOSITIONS FOR AND METHODS OF TREATING CANCER” (The George Washington University, priority 2022, published 2023).

For assay [1], the system named is THP1-derived macrophages. Kind of assay: M1/M2 marker gene expression in THP1-derived macrophages by qRT-PCR. The class given is cell-based, human. As to the method: Macrophages were polarized to M1-like phenotype using 50 ng/mL of interferon gamma (IFNγ, 575306, Biolegend) and 100 ng/mL of bacterial lipopolysaccharide (LPS, L2880, Sigma Aldrich, St. Louis, MO) for 24 hours. To polarize macrophages towards the M2-like phenotype, macrophages were stimulated with 20 ng/mL of IL-4 (214-14, PeproTech) and 20 ng/mL of IL-13 (575904, Biolegend). THP1 monocytes were treated with 5 ng/mL of phorbol 12-myristate 13-acetate (PMA) to induce differentiation into macrophages. Once converted to macrophages, media was replaced to remove PMA prior to treatment and/or polarization. Polarization towards M1 and M2 phenotypes was performed with respective recombinant human cytokines from PeproTech: 50 ng/mL of IFNγ (300-02), 20 ng/mL IL-4 (200-04), and 20 ng/mL IL-13 (200-13). 100 ng/mL LPS was also used to polarize toward the M1 phenotype. 3. In vivo Studies.
qRT-PCR: Total RNA was extracted from cells using the Trizol reagent according to manufacturer's instructions (ThermoFisher Scientific, 15596018). Samples were then processed immediately or stored at −80° C. RNA was quantified using a NanoDrop One Spectrophotometer (ThermoFisher Scientific). The 260/280 ratios were routinely over 1.8. Sample cDNA was produced using the iScript cDNA synthesis kit (Bio-Rad, 1708891). Target mRNA was quantified using MyIQ single-color real-time PCR detection system from Bio-Rad (Bio-Rad, Hercules, CA) and iQ SYBR green Supermix (Bio-Rad, 1708882). The following primers were synthesized by Invitrogen (Waltham, MA) with sequences designed by Origene (Rockville, MD): mouse R-actin (MP200232), mouse Nos2 (MP208933), mouse MRC1 (MP207800), human R-actin (HP204660), human IL-1β (HP200544), human MRC1 (HP206121), human NOS2 (HP200591), human CD209 (HP214086), mouse SIRPα (MP215450), mouse LRP1 (MP207604), human LRP1 (HP206040), mouse MFGE8 (MP208190), human MFGE8 (HP225757), mouse CD36 (MP201923), human CD36 (HP200058), and mouse CD47 (MP201932). Primers for mouse ARG-1 (PPM31770C) and human SIRPα (QT01031051) were purchased from Qiagen (Hilden, Germany). Human CD47 primer sequences were obtained from Sudo T, et al and are 5′-[…]-3′ (sense) (SEQ ID NO:01) and 5′-[…]-3′ (antisense) (SEQ ID NO:02) (Sudo T, et al. (2017) Oncol. Lett. 14:801-809). Human CD86 primer sequences are 5′-[…]-3′ (sense) (SEQ ID NO:03) and 5′-[…]-3′ (antisense) (SEQ ID NO:04). Mouse CD80 sequences are 5′-[…]-3′ (sense) (SEQ ID NO:05) and 5′-[…]-3′ (antisense) (SEQ ID NO:06). Cycling conditions were set as per manufacturer's instructions. Single product amplification was confirmed by melting curve analysis. Quantification is expressed in arbitrary units and target mRNA levels were normalized to R-actin expression. […]

Assay [2] deals with mouse CD47 promoter. Nature of the assay: CD47-luciferase reporter assay in SM1 melanoma cells. It is filed as cell-based. The following applies: SM1 transfected with CD47-luciferase reporter; NextA at different concentrations (FIG. 3D). The protocol:
The mouse CD47 or SIRPα promoters were cloned into a promoterless pGL4.20[luc2/puro] vector using Genentech's cloning services (San Francisco, CA, USA). Vectors were transfected into SM1 and B16 melanoma cells using Lipofectamine 3000 (L3000008, ThermoFisher) and transfected cells were selected using puromycin. A31A7 macrophages were transiently transfected using jetOPTIMUS DNA transfection reagent (Polyplus, NY, USA). Luminescence was measured using the Luciferase Assay System (E4550, Promega) in a SpectraMax i3× Multi-Mode Microplate Reader (Molecular Devices).
Furthermore, to investigate whether HDAC6 controls CD47 expression at the transcriptional level, the mouse CD47 promoter was cloned into a promoterless pGL4.20[luc2/puro] vector. SM1 melanoma cells were transfected with the CD47-luciferase reporter vector and stimulated with IFNγ in the absence or presence of NextA at different concentrations and measured luminescence. Treatment with NextA repressed IFNγ-mediated upregulation of Cd47 (FIG. 3D).
On the technique in general: Reporter assays use an easily measured gene product as a stand-in for the process of interest.

The subject of assay [3] is B16F10 melanoma tumors. Kind of assay: B16F10 melanoma tumor growth in vivo. Also noted: species or system mouse. To be noted: B16F10-bearing mice; legend: NextA 25 mg/kg IP, αCD47 50 μg IT (FIG. 10A). An excerpt: The antitumor effects of the combination therapy were also observed in the B16F10 melanoma model following the same experimental protocol as in the SM1 model. […] Regarding the immunophenotyping of tumors, there were no significant differences in the immune cell populations in the B16 TME by flow cytometry (FIG. 10B-FIG. 10E). Thus, the discrepancies between the SM1 and B16F10 tumor models could be explained by the scarce infiltration of immune cells in the TME of B16F10 tumors compared to SM1 tumors (5% versus 15%, respectively, FIG. 10F) as well as the poor immunogenicity of B16 tumors.

For the molecule `CCCCN(Cc1ccc(C(=O)NO)cc1)C(=O)Nc1ccccc1` [NextA, Nexturastat A], the “M1-associated markers NOS2, CD86, and IL1B” value in assay [1] (THP1-derived M1 macrophages, 5 μM NextA (FIG. 1H)) was “either unaffected or significantly upregulated”. In addition, the “expression of M2-associated markers CD206 and CD209 at the transcriptional level” value in assay [1] (THP1-derived M2 macrophages, 5 μM NextA (FIG. 1I)) is listed as “significantly downregulated”. Besides, the “IFNγ-mediated upregulation of Cd47 (luminescence)” value in assay [2] is on record as “repressed”. In addition, the “B16 melanoma tumor growth” value in assay [3] was “did not decrease”.
